Source: patent publication US10323038B2, “Pyrazole compounds and methods of making and using same” (ABIDE THERAPEUTICS, INC., priority 2015, dated 2019)

How the values were obtained:
Type in all cases: biochemical
[1] = target: MAGL (Homo sapiens (Human), UniProt Q99685); assay: In vitro competitive activity-based protein profiling, MAGL (human); conditions: human proteome; for inhibition at 10 µM: read-out: MAGL % inh. 10 μM (human); for inhibition at 1 µM: read-out: MAGL % inh. 1 μM (human)
Procedure: (§1) In Vitro Competitive Activity-Based Protein Profiling.
(§2) Proteomes (mouse brain membrane fraction or cell lysates for mouse assays; human prefrontal cortex or cell membrane fractions for human assays) (50 μL, 1.0 mg/mL total protein concentration) were preincubated with varying concentrations of inhibitors at 37° C. After 30 min, FP—Rh or HT-01 (1.0 μL, 50 μM in DMSO) was added and the mixture was incubated for another 30 min at 37° C. Reactions were quenched with SDS loading buffer (15 μL-4×) and run on SDS-PAGE. Following gel imaging, serine hydrolase activity was determined by measuring fluorescent intensity of gel bands corresponding to MAGL and FAAH using ImageJ 1.43u software.

[2] = target: FAAH (Homo sapiens (Human), UniProt O00519); assay: In vitro competitive activity-based protein profiling, FAAH (human); conditions: human proteome; for inhibition at 10 µM: read-out: FAAH % inh. 10 μM (human); for inhibition at 1 µM: read-out: FAAH % inh. 1 μM (human)
FAAH (Homo sapiens (Human), UniProt O00519), sequence (O00519 whole entry): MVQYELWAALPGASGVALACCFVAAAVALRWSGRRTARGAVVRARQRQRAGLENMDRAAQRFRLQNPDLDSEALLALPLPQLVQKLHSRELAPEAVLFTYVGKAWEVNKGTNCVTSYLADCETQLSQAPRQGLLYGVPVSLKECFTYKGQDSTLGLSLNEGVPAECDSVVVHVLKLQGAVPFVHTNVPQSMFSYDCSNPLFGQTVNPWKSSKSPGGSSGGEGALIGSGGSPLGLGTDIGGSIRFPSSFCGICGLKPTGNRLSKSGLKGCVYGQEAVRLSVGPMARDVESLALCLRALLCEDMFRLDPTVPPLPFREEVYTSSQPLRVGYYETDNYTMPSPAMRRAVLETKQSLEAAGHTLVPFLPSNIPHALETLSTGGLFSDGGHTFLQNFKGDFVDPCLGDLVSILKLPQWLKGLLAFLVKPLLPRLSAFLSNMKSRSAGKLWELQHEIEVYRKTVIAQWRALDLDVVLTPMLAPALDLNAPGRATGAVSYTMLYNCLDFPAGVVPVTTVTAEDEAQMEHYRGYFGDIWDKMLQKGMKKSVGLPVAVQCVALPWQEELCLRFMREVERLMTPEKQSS
Procedure: as §1, §2

[3] = target: MAGL (Mus musculus (Mouse), UniProt O35678); assay: In vitro competitive activity-based protein profiling, MAGL (mouse); conditions: 1 μM, read-out: MAGL % inh. 1 μM (mouse)
MAGL (Mus musculus (Mouse), UniProt O35678), sequence (O35678 whole entry): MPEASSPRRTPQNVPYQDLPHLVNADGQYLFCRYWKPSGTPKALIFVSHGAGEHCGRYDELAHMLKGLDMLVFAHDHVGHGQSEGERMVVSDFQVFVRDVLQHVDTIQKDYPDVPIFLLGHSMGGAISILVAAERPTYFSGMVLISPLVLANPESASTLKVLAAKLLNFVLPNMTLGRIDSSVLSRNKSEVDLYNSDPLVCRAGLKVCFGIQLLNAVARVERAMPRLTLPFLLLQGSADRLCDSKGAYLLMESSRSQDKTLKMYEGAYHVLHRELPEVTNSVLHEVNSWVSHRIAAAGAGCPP
In short: (§3)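 Proteomes at 1.0 mg/mL protein (mouse brain membranes or cell lysates; human prefrontal cortex or cell membranes) preincubated with inhibitor 30 min at 37 °C. Then FP-Rh or HT-01 probe (50 μM stock) added for 30 min at 37 °C. MAGL and FAAH activity measured by SDS-PAGE band fluorescence.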

[4] = target: FAAH (Mus musculus (Mouse), UniProt O08914); assay: In vitro competitive activity-based protein profiling, FAAH (mouse); conditions: 1 μM, read-out: FAAH % inh. 1 μM (mouse)
FAAH (Mus musculus (Mouse), UniProt O08914), sequence (O08914 whole entry): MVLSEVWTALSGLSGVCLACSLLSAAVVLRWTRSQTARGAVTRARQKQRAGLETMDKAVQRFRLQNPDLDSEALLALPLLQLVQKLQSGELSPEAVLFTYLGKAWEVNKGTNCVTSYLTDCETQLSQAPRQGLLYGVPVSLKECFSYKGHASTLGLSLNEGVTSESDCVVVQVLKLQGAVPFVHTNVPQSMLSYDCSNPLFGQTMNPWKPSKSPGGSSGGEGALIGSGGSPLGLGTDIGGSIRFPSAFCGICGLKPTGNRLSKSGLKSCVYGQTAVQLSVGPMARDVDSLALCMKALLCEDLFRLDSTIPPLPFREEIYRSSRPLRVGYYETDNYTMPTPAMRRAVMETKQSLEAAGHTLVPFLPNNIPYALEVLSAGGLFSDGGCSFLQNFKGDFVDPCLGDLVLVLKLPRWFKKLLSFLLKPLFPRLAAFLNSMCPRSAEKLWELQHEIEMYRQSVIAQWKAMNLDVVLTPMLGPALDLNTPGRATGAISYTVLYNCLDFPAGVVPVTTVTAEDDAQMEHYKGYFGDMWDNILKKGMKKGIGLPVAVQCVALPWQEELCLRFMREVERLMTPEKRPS
In short: as §3

MAGL (Homo sapiens (Human), UniProt Q99685), sequence (Q99685 whole entry): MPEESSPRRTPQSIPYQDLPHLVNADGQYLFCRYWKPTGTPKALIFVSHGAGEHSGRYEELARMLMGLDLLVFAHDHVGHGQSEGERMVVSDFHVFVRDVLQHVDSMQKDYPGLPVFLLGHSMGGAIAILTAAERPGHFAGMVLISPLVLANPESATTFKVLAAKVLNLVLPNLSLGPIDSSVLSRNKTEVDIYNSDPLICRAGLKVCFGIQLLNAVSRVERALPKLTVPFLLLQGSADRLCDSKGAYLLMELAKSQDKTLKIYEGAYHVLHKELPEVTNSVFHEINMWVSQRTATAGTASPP

Row | SMILES | inhibition at 10 µM [1] | inhibition at 10 µM [2] | inhibition at 1 µM [3] | inhibition at 1 µM [4] | inhibition at 1 µM [1] | inhibition at 1 µM [2]
1 | CC(=O)N(C)c1cnn(C(=O)N2CCC3(CCN(Cc4ccc(N5CCOCC5)cc4)C3)C2)c1 (stereo not shown) [Example 3, N-methyl-N-(1-(7-(4-morpholinobenzyl)-2,7-diazaspiro[4.4]nonane-2-carbonyl)-1H-pyrazol-4-yl)acetamide] | ≥ 75% | ≥ 75% | 0 to 25% | 50 to 75% | – | –
2 | CC(=O)N(C)c1cnn(C(=O)N2CCC3(CCN(Cc4ccc(N5CCOCC5)cc4C)C3)C2)c1 (stereo not shown) [Example 5, N-methyl-N-(1-(7-(2-methyl-4-morpholinobenzyl)-2,7-diazaspiro[4.4]nonane-2-carbonyl)-1H-pyrazol-4-yl)acetamide] | ≥ 75% | ≥ 75% | 0 to 25% | 50 to 75% | – | –
3 | CC(=O)N(C)c1cnn(C(=O)N2CC3CN(Cc4ccc(N5CCOCC5)cc4)CC3C2)c1 (stereo not shown) [Example 15, N-methyl-N-(1-(5-(4-morpholinobenzyl)octahydropyrrolo[3,4-c]pyrrole-2-carbonyl)-1H-pyrazol-4-yl)acetamide] | ≥ 75% | ≥ 75% | 0 to 25% | 25 to 50% | – | –
4 | CC(=O)N(C)c1cnn(C(=O)N2CC3(CCN(Cc4ccc(N5CCOCC5)cc4)CC3)C2)c1 [Example 21, N-methyl-N-(1-(7-(4-morpholinobenzyl)-2,7-diazaspiro[3.5]nonane-2-carbonyl)-1H-pyrazol-4-yl)acetamide] | 0 to 25% | ≥ 75% | 0 to 25% | 25 to 50% | – | –
5 | CC(=O)N(C)c1cnn(C(=O)N2CCC3(CCN(Cc4cccc(N5CCOCC5)c4)C3)C2)c1 (stereo not shown) [Example 48, N-methyl-N-(1-(7-(3-morpholinobenzyl)-2,7-diazaspiro[4.4]nonane-2-carbonyl)-1H-pyrazol-4-yl)acetamide] | ≥ 75% | ≥ 75% | 0 to 25% | 25 to 50% | – | –
6 | CC(=O)N(C)c1cnn(C(=O)N2CCC3(CCN(Cc4ccccc4F)C3)C2)c1 (stereo not shown) [Example 52, N-(1-(7-(2-fluorobenzyl)-2,7-diazaspiro[4.4]nonane-2-carbonyl)-1H-pyrazol-4-yl)-N-methylacetamide] | ≥ 75% | ≥ 75% | 0 to 25% | ≥ 75% | – | –
7 | CC(=O)N(C)c1cnn(C(=O)N2CCC3(CCN(Cc4ccccc4C)C3)C2)c1 (stereo not shown) [Example 54, N-methyl-N-(1-(7-(2-methylbenzyl)-2,7-diazaspiro[4.4]nonane-2-carbonyl)-1H-pyrazol-4-yl)acetamide] | ≥ 75% | ≥ 75% | 0 to 25% | ≥ 75% | – | –
8 | COc1ccccc1CN1CCC2(CCN(C(=O)n3cc(N(C)C(C)=O)cn3)C2)C1 (stereo not shown) [Example 56, N-(1-(7-(2-methoxybenzyl)-2,7-diazaspiro[4.4]nonane-2-carbonyl)-1H-pyrazol-4-yl)-N-methylacetamide] | ≥ 75% | ≥ 75% | 0 to 25% | 0 to 25% | – | –
9 | CC(=O)N(C)c1cnn(C(=O)N2CCC3(CCN(Cc4ccccc4N4CCCC4)C3)C2)c1 (stereo not shown) [Example 60, N-methyl-N-(1-(7-(2-(pyrrolidin-1-yl)benzyl)-2,7-diazaspiro[4.4]nonane-2-carbonyl)-1H-pyrazol-4-yl)acetamide] | ≥ 75% | ≥ 75% | 0 to 25% | 0 to 25% | – | –
10 | CC(=O)N(C)c1cnn(C(=O)N2CCC3(CCN(Cc4ccccc4N4CCOCC4)C3)C2)c1 (stereo not shown) [Example 62, N-methyl-N-(1-(7-(2-morpholinobenzyl)-2,7-diazaspiro[4.4]nonane-2-carbonyl)-1H-pyrazol-4-yl)acetamide] | 25 to 50% | ≥ 75% | 0 to 25% | 0 to 25% | – | –
11 | CC(=O)N(C)c1cnn(C(=O)N2CCC3(CCN(Cc4ccc(F)cc4)C3)C2)c1 (stereo not shown) [Example 75, N-(1-(7-(4-fluorobenzyl)-2,7-diazaspiro[4.4]nonane-2-carbonyl)-1H-pyrazol-4-yl)-N-methylacetamide] | ≥ 75% | ≥ 75% | 0 to 25% | 50 to 75% | – | –
12 | CC(=O)N(C)c1cnn(C(=O)N2CCC3(CCN(Cc4ccc(C)cc4)C3)C2)c1 (stereo not shown) [Example 76, N-methyl-N-(1-(7-(4-methylbenzyl)-2,7-diazaspiro[4.4]nonane-2-carbonyl)-1H-pyrazol-4-yl)acetamide] | ≥ 75% | ≥ 75% | 0 to 25% | 50 to 75% | – | –
13 | COc1ccc(CN2CCC3(CCN(C(=O)n4cc(N(C)C(C)=O)cn4)C3)C2)cc1 (stereo not shown) [Example 77, N-(1-(7-(4-methoxybenzyl)-2,7-diazaspiro[4.4]nonane-2-carbonyl)-1H-pyrazol-4-yl)-N-methylacetamide] | ≥ 75% | ≥ 75% | 0 to 25% | 25 to 50% | – | –
14 | CC(=O)N(C)c1cnn(C(=O)N2CCC3(CCN(Cc4cccc(F)c4)C3)C2)c1 (stereo not shown) [Example 79, N-(1-(7-(3-fluorobenzyl)-2,7-diazaspiro[4.4]nonane-2-carbonyl)-1H-pyrazol-4-yl)-N-methylacetamide] | ≥ 75% | ≥ 75% | 0 to 25% | ≥ 75% | – | –
15 | CC(=O)N(C)c1cnn(C(=O)N2CCC3(CCN(Cc4cccc(C)c4)C3)C2)c1 (stereo not shown) [Example 80, N-methyl-N-(1-(7-(3-methylbenzyl)-2,7-diazaspiro[4.4]nonane-2-carbonyl)-1H-pyrazol-4-yl)acetamide] | ≥ 75% | ≥ 75% | 0 to 25% | 50 to 75% | – | –
16 | COc1cccc(CN2CCC3(CCN(C(=O)n4cc(N(C)C(C)=O)cn4)C3)C2)c1 (stereo not shown) [Example 81, N-(1-(7-(3-methoxybenzyl)-2,7-diazaspiro[4.4]nonane-2-carbonyl)-1H-pyrazol-4-yl)-N-methylacetamide] | ≥ 75% | ≥ 75% | 0 to 25% | 50 to 75% | – | –
17 | CC(=O)N(C)c1cnn(C(=O)N2CC3(CCN(Cc4ccccc4C(F)(F)F)CC3)C2)c1 [Example 90, N-methyl-N-(1-(7-(2-(trifluoromethyl)benzyl)-2,7-diazaspiro[3.5]nonane-2-carbonyl)-1H-pyrazol-4-yl)acetamide] | 25 to 50% | ≥ 75% | 0 to 25% | ≥ 75% | – | –
18 | Cc1nnc(-c2ccc(CN3CCN(C(=O)n4cc(NS(C)(=O)=O)cn4)CC3)c(C(F)(F)F)c2)o1 [Example 306, N-(1-(4-(4-(5-methyl-1,3,4-oxadiazol-2-yl)-2-(trifluoromethyl)benzyl)piperazine-1-carbonyl)-1H-pyrazol-4-yl)methanesulfonamide] | – | – | – | – | 50 to 75% | 0 to 25%
19 | Cc1nccn1-c1ccc(CN2CCN(C(=O)n3cc(NS(C)(=O)=O)cn3)CC2)c(C(F)(F)F)c1 [Example 308, N-(1-(4-(4-(2-methyl-1H-imidazol-1-yl)-2-(trifluoromethyl)benzyl)piperazine-1-carbonyl)-1H-pyrazol-4-yl)methanesulfonamide] | – | – | – | – | ≥ 75% | 0 to 25%
20 | CS(=O)(=O)Nc1cnn(C(=O)N2CCN(Cc3ccc(-c4ncccn4)cc3C(F)(F)F)CC2)c1 [Example 310] | – | – | – | – | ≥ 75% | ≥ 75%
21 | CS(=O)(=O)Nc1cnn(C(=O)N2CCN(Cc3ccc(-c4cccnn4)cc3C(F)(F)F)CC2)c1 [Example 311, N-(1-(4-(4-(pyridazin-3-yl)-2-(trifluoromethyl)benzyl)piperazine-1-carbonyl)-1H-pyrazol-4-yl)methanesulforamide] | – | – | – | – | ≥ 75% | 50 to 75%
22 | CS(=O)(=O)Nc1cnn(C(=O)N2CCN(Cc3ccc(-c4ccnnc4)cc3C(F)(F)F)CC2)c1 [Example 312, N-(1-(4-(4-(pyridazin-4-yl)-2-(trifluoromethyl)benzyl)piperazine-1-carbonyl)-1H-pyrazol-4-yl)methanesulfonamide] | – | – | – | – | ≥ 75% | 25 to 50%
23 | CC(=O)Nc1cnn(C(=O)N2CC3CN(Cc4cccc(Oc5ccc(Cl)cc5)c4)CC3C2)c1 (stereo not shown) [Example 316, N-(1-(5-(3-(4-chlorophenoxy)benzyl)octahydropyrrolo [3,4-c]pyrrole-2-carbonyl)-1H-pyrazol-4-yl)acetamide] | – | – | – | – | ≥ 75% | ≥ 75%
24 | C#Cc1ccc(CN2CCN(C(=O)n3cc(NS(C)(=O)=O)cn3)CC2)cc1 [Example 318, N-(1-(4-(4-ethynylbenzyl)piperazine-1-carbonyl)-1H-pyrazol-4-yl)methanesulfonamide] | – | – | – | – | 25 to 50% | ≥ 75%
